Test results reported in US10251395B2, “Substituted furano-/thienocycloalkylamino-2-pyrimidine derivatives and use thereof for controlling undesired plant growth” (Bayer CropScience Aktiengesellschaft, priority 2015, dated 2019).

Legend:
Echinochloa crus-galli [1] = experiment: Pre-emergence herbicidal effect; assay type: in vivo; settings: scored visually after 3 weeks
Procedure, shortened: (§1)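 Sowing in sandy loam, covering with soil, then surface application of compound as aqueous suspension or emulsion (600 to 800 L/ha, 0.2% wetting agent). Greenhouse growth under good conditions; visual % damage scored at 3 weeks versus untreated pots.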

Polygonum convolvulus = experiment: Pre-emergence herbicidal effect; assay type: in vivo; settings: scored visually after 3 weeks
Procedure, shortened: as §1

Veronica persica [2] = experiment: Pre-emergence herbicidal effect; assay type: in vivo; settings: scored visually after 3 weeks
Procedure, shortened: as §1

Stellaria media [3] = experiment: Pre-emergence herbicidal effect; assay type: in vivo; settings: scored visually after 3 weeks
Procedure, shortened: as §1

Setaria viridis [4] = experiment: Pre-emergence herbicidal effect; assay type: in vivo; settings: scored visually after 3 weeks
Procedure, shortened: as §1

Matricaria inodora [5] = experiment: Pre-emergence herbicidal effect; assay type: in vivo; settings: scored visually after 3 weeks
Procedure, shortened: as §1

Amaranthus retroflexus [6] = experiment: Pre-emergence herbicidal effect; assay type: in vivo; settings: scored visually after 3 weeks
Procedure, shortened: as §1

Alopecurus myosuroides = experiment: Pre-emergence herbicidal effect; assay type: in vivo; settings: scored visually after 3 weeks
Procedure, shortened: as §1

Viola tricolor [7] = experiment: Pre-emergence herbicidal effect; assay type: in vivo; settings: scored visually after 3 weeks
Procedure, shortened: as §1

logP (HCOOH) = assay type: physicochemical; settings: for chromatographic logP: HCOOH (formic acid)
Excerpt: Table 2 (physicochemical characterization of selected synthesis examples)

Veronica persica [8] = experiment: Post-emergence herbicidal effect; assay type: in vivo; settings: assessed visually after about 3 weeks vs untreated controls
Procedure, shortened: (§2)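 Greenhouse weeds grown in sandy loam were sprayed at the one-leaf stage, 2–3 weeks after sowing, with WP or EC formulations in 600–800 L/ha water plus 0.2% wetting agent. Damage was scored visually after about 3 weeks as percent activity relative to untreated controls, where 100% means the plants died.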

Ipomoea purpurea = experiment: Post-emergence herbicidal effect; assay type: in vivo; settings: 320 g/ha, assessed visually after about 3 weeks vs untreated controls
Procedure, shortened: as §2

Viola tricolor [9] = experiment: Post-emergence herbicidal effect; assay type: in vivo; settings: assessed visually after about 3 weeks vs untreated controls
Procedure, shortened: as §2

Lolium multiflorum = experiment: Pre-emergence herbicidal effect; assay type: in vivo; settings: Dosage 320 g/ha, scored visually after 3 weeks
Procedure, shortened: as §1

Stellaria media [10] = experiment: Post-emergence herbicidal effect; assay type: in vivo; settings: assessed visually after about 3 weeks vs untreated controls
Procedure, shortened: as §2

Setaria viridis [11] = experiment: Post-emergence herbicidal effect; assay type: in vivo; settings: 320 g/ha, assessed visually after about 3 weeks vs untreated controls
Procedure, shortened: as §2

Matricaria inodora [12] = experiment: Post-emergence herbicidal effect; assay type: in vivo; settings: assessed visually after about 3 weeks vs untreated controls
Procedure, shortened: as §2

Abutilon theophrasti [13] = experiment: Post-emergence herbicidal effect; assay type: in vivo; settings: assessed visually after about 3 weeks vs untreated controls
Procedure, shortened: as §2

Amaranthus retroflexus [14] = experiment: Post-emergence herbicidal effect; assay type: in vivo; settings: assessed visually after about 3 weeks vs untreated controls
Procedure, shortened: as §2

Abutilon theophrasti [15] = experiment: Pre-emergence herbicidal effect; assay type: in vivo; settings: Dosage 320 g/ha, scored visually after 3 weeks
Procedure, shortened: as §1

Echinochloa crus-galli [16] = experiment: Post-emergence herbicidal effect; assay type: in vivo; settings: 320 g/ha, assessed visually after about 3 weeks vs untreated controls
Procedure, shortened: as §2

SMILES | ECHCG pre-emergence efficacy (herbicidal activity) (Echinochloa crus-galli [1]; Dosage 320 g/ha) [%] | POLCO pre-emergence efficacy (herbicidal activity) (Polygonum convolvulus; Dosage 320 g/ha) [%] | VERPE pre-emergence efficacy (herbicidal activity) (Veronica persica [2]; Dosage 80 g/ha) [%] | VERPE pre-emergence efficacy (herbicidal activity) (Veronica persica [2]; Dosage 320 g/ha) [%] | STEME pre-emergence efficacy (herbicidal activity) (Stellaria media [3]; Dosage 320 g/ha) [%] | SETVI pre-emergence efficacy (herbicidal activity) (Setaria viridis [4]; Dosage 320 g/ha) [%] | MATIN pre-emergence efficacy (herbicidal activity) (Matricaria inodora [5]; Dosage 80 g/ha) [%] | MATIN pre-emergence efficacy (herbicidal activity) (Matricaria inodora [5]; Dosage 320 g/ha) [%] | AMARE pre-emergence efficacy (herbicidal activity) (Amaranthus retroflexus [6]; Dosage 80 g/ha) [%] | AMARE pre-emergence efficacy (herbicidal activity) (Amaranthus retroflexus [6]; Dosage 320 g/ha) [%] | VIOTR pre-emergence efficacy (herbicidal activity) (Viola tricolor [7]; Dosage 80 g/ha) [%] | VIOTR pre-emergence efficacy (herbicidal activity) (Viola tricolor [7]; Dosage 320 g/ha) [%] | logP (HCOOH) (logP (HCOOH)) | post-emergence efficacy VERPE (Veronica persica [8]; 320 g/ha) [%] | post-emergence efficacy VIOTR (Viola tricolor [9]; 80 g/ha) [%] | post-emergence efficacy VIOTR (Viola tricolor [9]; 320 g/ha) [%] | STEME pre-emergence efficacy (herbicidal activity) (Stellaria media [3]; Dosage 80 g/ha) [%] | post-emergence efficacy AMARE (Amaranthus retroflexus [14]; 320 g/ha) [%] | other results
Cc1cc2c(s1)CCCC2Nc1ncc(C(=O)C(F)(F)F)c(N)n1 (racemic) [compound 72] | 80 | 100 | 100 | 100 | 100 | 100 | 100 | 100 | 80 | 100 | 100 | 100 | oily; logP (HCOOH): 3.90; 1H NMR (CDCl3, 400 MHZ, δ in ppm): 1.85 (m, 3H, 3H of | 80 | 80 | 100 |  |  | ALOMY pre-emergence efficacy (herbicidal activity) (Alopecurus myosuroides; Dosage 80 g/ha): 80%; ALOMY pre-emergence efficacy (herbicidal activity) (Alopecurus myosuroides; Dosage 320 g/ha): 90%; post-emergence efficacy VERPE (Veronica persica [8]; 80 g/ha): 80%; post-emergence efficacy PHBPU (Ipomoea purpurea): 80%
N#Cc1cnc(NC2CCc3cc(Cl)sc32)nc1N (racemic) [compound 49] |  |  |  | 70 | 100 |  |  |  |  | 100 | 100 | 100 | solid; logP (HCOOH): 2.32; |  | 80 | 90 | 90 |  | 
CNC(=O)c1cnc(NC2CCCc3sc(C)cc32)nc1N (racemic) [compound 266] | 100 |  | 100 | 100 | 100 | 100 |  | 100 | 100 | 100 |  | 100 | logP (HCOOH): 1.17; 1H NMR (CDCl3, 400 MHZ, δ in ppm): 1.90 (m, 3H, 3H of | 90 | 80 | 90 | 100 | 100 | SETVI pre-emergence efficacy (herbicidal activity) (Setaria viridis [4]; Dosage 80 g/ha): 100%; LOLMU pre-emergence efficacy (herbicidal activity) (Lolium multiflorum): 60%; post-emergence efficacy VERPE (Veronica persica [8]; 80 g/ha): 90%; post-emergence efficacy STEME (Stellaria media [10]; 80 g/ha): 80%; post-emergence efficacy STEME (Stellaria media [10]; 320 g/ha): 100%; post-emergence efficacy SETVI (Setaria viridis [11]): 60%; post-emergence efficacy MATIN (Matricaria inodora [12]; 80 g/ha): 60%; post-emergence efficacy MATIN (Matricaria inodora [12]; 320 g/ha): 60%; post-emergence efficacy ABUTH (Abutilon theophrasti [13]; 80 g/ha): 80%; post-emergence efficacy ABUTH (Abutilon theophrasti [13]; 320 g/ha): 80%; post-emergence efficacy AMARE (Amaranthus retroflexus [14]; 80 g/ha): 90%
Cc1cc2c(s1)CCCC2Nc1nc(N)c([S+](C)[O-])c(C(F)(F)F)n1 (racemic) [compound 35] |  | 90 |  | 90 | 100 |  |  | 90 |  | 90 |  | 100 | oily; logP (HCOOH): 3.44; 1H NMR (CDCl3, 400 MHZ, δ in ppm): 1.85 (m, 3H, 3H of |  |  | 90 |  | 80 | 
Cc1cc2c(s1)CCCC2Nc1ncc(F)c(N)n1 (stereo not shown) [compound 12, 5-Fluoro-N2-(2-methyl-4,5,6,7-tetrahydro-1-benzothiophen-4-yl)pyrimidine-2,4-diamine] |  | 80 |  | 100 | 100 | 90 |  | 90 |  | 90 |  | 100 |  |  |  |  |  |  | ALOMY pre-emergence efficacy (herbicidal activity) (Alopecurus myosuroides; Dosage 320 g/ha): 90%; chromatographic logP (logP (HCOOH)): 1.07
CS(=O)(=O)c1cnc(NC2CCc3ccsc32)nc1N (stereo not shown) [compound 33, N2-(5,6-Dihydro-4H-cyclopenta[b]thiophen-6-yl)-5-methylsulfonylpyrimidine-2,4-diamine] | 100 | 100 | 80 | 100 | 100 |  | 100 | 100 | 100 | 100 | 100 | 100 |  |  | 80 | 90 | 100 |  | LOLMU pre-emergence efficacy (herbicidal activity) (Lolium multiflorum): 100%; chromatographic logP (logP (HCOOH)): 1.57; post-emergence efficacy MATIN (Matricaria inodora [12]; 320 g/ha): 90%
Cc1cc2c(s1)CCC2Nc1ncc(S(=O)(=O)C(C)C)c(N)n1 (racemic) [compound 63] |  | 100 |  |  | 100 | 100 | 100 | 100 |  |  | 100 | 100 | solid; logP (HCOOH): 2.40; 1H NMR (CDCl3, 400 MHZ, δ in ppm): 1.35 (d, 6H, 6H |  | 90 | 90 | 100 | 40 | POLCO pre-emergence efficacy (herbicidal activity) (Polygonum convolvulus; Dosage 80 g/ha): 20%; ALOMY pre-emergence efficacy (herbicidal activity) (Alopecurus myosuroides; Dosage 320 g/ha): 100%; post-emergence efficacy AMARE (Amaranthus retroflexus [14]; 80 g/ha): 10%
Nc1nc(NC2CCCc3sccc32)ncc1S(=O)(=O)C1CC1 (racemic) [compound 36] |  |  | 90 | 100 | 100 |  | 100 | 100 | 100 | 100 | 100 | 100 | solid; m.p.: 243.3° C.; logP (HCOOH): 2.12; 1H NMR (CDCl3, 400 MHZ, δ in ppm): | 80 | 100 | 100 | 100 |  | post-emergence efficacy STEME (Stellaria media [10]; 320 g/ha): 80%
CS(=O)(=O)c1cnc(NC2CCCc3sc(Cl)cc32)nc1N (racemic) [compound 42] | 100 | 80 | 100 | 100 | 100 | 100 | 100 | 100 | 100 | 100 | 100 | 100 | oily; logP (HCOOH): 2.33; 1H NMR (CDCl3, 400 MHZ, δ in ppm): 1.80 (m, 1H, 1H of | 100 | 90 | 100 | 100 | 90 | ECHCG pre-emergence efficacy (herbicidal activity) (Echinochloa crus-galli [1]; Dosage 80 g/ha): 100%; SETVI pre-emergence efficacy (herbicidal activity) (Setaria viridis [4]; Dosage 80 g/ha): 100%; ABUTH pre-emergence efficacy (herbicidal activity) (Abutilon theophrasti [15]): 100%; post-emergence efficacy ECHCG (Echinochloa crus-galli [16]): 100%; post-emergence efficacy VERPE (Veronica persica [8]; 80 g/ha): 90%; post-emergence efficacy PHBPU (Ipomoea purpurea): 80%; post-emergence efficacy STEME (Stellaria media [10]; 80 g/ha): 90%; post-emergence efficacy STEME (Stellaria media [10]; 320 g/ha): 100%
Cc1nc(N[C@@H]2CCCc3sccc32)ncc1F [compound 223] |  |  |  |  |  |  |  |  |  |  |  |  | solid; logP (HCOOH): 2.57; 1H NMR (CDCl3, 400 MHZ, δ in ppm): 1.90 (m, 3H, 3H |  |  |  |  |  | 
Cc1nc(NC2CCCc3c(C)sc(C)c32)nc(N)c1C#N (racemic) [compound 64] |  |  |  |  |  |  |  |  |  |  |  |  | solid, logP (HCOOH): 2.71; 1H NMR (CDCl3, 400 MHZ, δ in ppm): 1.75 (m, 3H, 3H |  |  |  |  |  | 
